Experimental data from the NIST ThermoML archive (doi:10.1021/je300678r).
Values joined by “and” are separate entries in the source; they are usually repeats but may differ in a detail not shown here. Identical values can stand only once. Numbers after ± are expanded uncertainties.

Key:
[1] = xn = mol fraction of the nth substance listed; conditions: 298.15 K, 101 kPa, Liquid, Vibrating tube method
[2] = excess molar enthalpy (molar enthalpy of mixing); xn = mol fraction of the nth substance listed; conditions: 298.15 K, 101 kPa, Liquid, Flow calorimetry
[3] = refractive index (Na D-line) (dimensionless); xn = mol fraction of the nth substance listed; conditions: 298.15 K, 101 kPa, Liquid, Standard Abbe refractometry
[4] = refractive index (Na D-line) (dimensionless); conditions: 101.33 kPa, Liquid, Standard Abbe refractometry
[5] = Liquid; for mass density: 101.33 kPa, Vibrating tube method; for vapor or sublimation pressure: Ebulliometric method (Recirculating still)

Q: For CCCCC(CC)CO (stereo unspecified) [2-ethyl-1-hexanol] + CC(=O)CC(C)C, which mass density ([1]; x2 = 0.1009) is on record?
A: 826.11 ± 0.34 kg/m3

Q: What about the mass density ([1]; x2 = 0.2001) of the same compound?
A: 823.29 ± 0.35 kg/m3

Q: What about the mass density ([1]; x2 = 0.3019) of the same compound?
A: 820.27 ± 0.35 kg/m3

Q: And the mass density ([1]; x2 = 0.4014)?
A: 817.23 ± 0.36 kg/m3

Q: What about the mass density ([1]; x2 = 0.5009) of the same compound?
A: 813.99 ± 0.37 kg/m3

Q: What about the mass density ([1]; x2 = 0.6018) of the same compound?
A: 810.67 ± 0.37 kg/m3

Q: And the mass density ([1]; x2 = 0.7019)?
A: 807.13 ± 0.37 kg/m3

Q: What about the mass density ([1]; x2 = 0.8009) of the same compound?
A: 803.8 ± 0.37 kg/m3 and 803.62 ± 0.37 kg/m3

Q: What about the mass density ([1]; x2 = 0.9004) of the same compound?
A: 800.06 ± 0.35 kg/m3

Q: And the excess molar enthalpy ([2]; x2 = 0.1009)?
A: 0.132 ± 0.00382 kcal/mol

Q: What about the excess molar enthalpy ([2]; x2 = 0.2001) of the same compound?
A: 0.236 ± 0.00669 kcal/mol

Q: What about the excess molar enthalpy ([2]; x2 = 0.3019) of the same compound?
A: 0.313 ± 0.0086 kcal/mol

Q: And the excess molar enthalpy ([2]; x2 = 0.4014)?
A: 0.361 ± 0.0098 kcal/mol

Q: And the excess molar enthalpy ([2]; x2 = 0.5009)?
A: 0.38 ± 0.0103 kcal/mol

Q: What about the excess molar enthalpy ([2]; x2 = 0.6018) of the same compound?
A: 0.371 ± 0.01 kcal/mol

Q: And the excess molar enthalpy ([2]; x2 = 0.7019)?
A: 0.329 ± 0.00908 kcal/mol

Q: And the excess molar enthalpy ([2]; x2 = 0.8009)?
A: 0.258 kcal/mol and 0.257 kcal/mol

Q: What about the excess molar enthalpy ([2]; x2 = 0.9004) of the same compound?
A: 0.149 ± 0.00454 kcal/mol

Q: What about the refractive index ([3]; x2 = 0) of the same compound?
A: 1.42949 ± 0.00032

Q: And the refractive index ([3]; x2 = 0.0516)?
A: 1.42806 ± 0.00032

Q: What about the refractive index ([3]; x2 = 0.1017) of the same compound?
A: 1.4266 ± 0.00032

Q: And the refractive index ([3]; x2 = 0.2045)?
A: 1.42351 ± 0.00032

Q: And the refractive index ([3]; x2 = 0.397)?
A: 1.41723 ± 0.00032

Q: And the refractive index ([3]; x2 = 0.605)?
A: 1.41 ± 0.00033

Q: And the refractive index ([3]; x2 = 0.7986)?
A: 1.40249 ± 0.00033

Q: And the refractive index ([3]; x2 = 0.9051)?
A: 1.39848 ± 0.00033

Q: And the refractive index ([3]; x2 = 0.9491)?
A: 1.39587 ± 0.00033

Q: What does the source list for CCC(C)(C)O [2-methylbutan-2-ol]?
A: refractive index ([4]; 297.85 K): 1.4025 ± 0.0004; refractive index ([4]; 298.15 K): 1.40253 ± 0.00037; mass density ([5]; 297.85 K): 805.3 ± 0.4 kg/m3; vapor or sublimation pressure ([5]; 336.04 K): 19.84 ± 0.25 kPa; vapor or sublimation pressure ([5]; 344.75 K): 29.94 ± 0.28 kPa; vapor or sublimation pressure ([5]; 351.29 K): 39.96 ± 0.35 kPa; vapor or sublimation pressure ([5]; 356.6 K): 49.95 ± 0.42 kPa; vapor or sublimation pressure ([5]; 361.18 K): 60.05 ± 0.48 kPa; vapor or sublimation pressure ([5]; 365.4 K): 70.74 ± 0.53 kPa; vapor or sublimation pressure ([5]; 368.07 K): 78.27 ± 0.54 kPa; vapor or sublimation pressure ([5]; 368.16 K): 78.09 ± 0.37 kPa; vapor or sublimation pressure ([5]; 368.75 K): 80.2 ± 0.38 kPa; vapor or sublimation pressure ([5]; 371.97 K): 90.23 ± 0.34 kPa; vapor or sublimation pressure ([5]; 375.14 K): 100.74 ± 0.49 kPa; vapor or sublimation pressure ([5]; 375.38 K): 101.88 ± 0.5 kPa; vapor or sublimation pressure ([5]; 375.53 K): 102.61 ± 0.5 kPa

Q: Which mass density ([1]; x1 = 0.1009) does the source give for CC(=O)CC(C)C [4-methylpentan-2-one] + CCC(C)O here?
A: 800.64 ± 0.35 kg/m3

Q: What about the mass density ([1]; x1 = 0.2009) of the same compound?
A: 799.14 ± 0.35 kg/m3

Q: And the mass density ([1]; x1 = 0.3007)?
A: 798.02 ± 0.35 kg/m3

Q: What about the mass density ([1]; x1 = 0.4015) of the same compound?
A: 797.16 ± 0.35 kg/m3 and 797.13 ± 0.35 kg/m3

Q: And the mass density ([1]; x1 = 0.5008)?
A: 796.55 ± 0.35 kg/m3

Q: What about the mass density ([1]; x1 = 0.6021) of the same compound?
A: 796.12 ± 0.35 kg/m3

Q: What about the mass density ([1]; x1 = 0.7004) of the same compound?
A: 795.9 ± 0.35 kg/m3

Q: What about the mass density ([1]; x1 = 0.7998) of the same compound?
A: 795.84 ± 0.35 kg/m3

Q: And the mass density ([1]; x1 = 0.8998)?
A: 795.97 ± 0.35 kg/m3

Q: And the excess molar enthalpy ([2]; x1 = 0.1009)?
A: 0.161 ± 0.00454 kcal/mol

Q: What about the excess molar enthalpy ([2]; x1 = 0.2009) of the same compound?
A: 0.272 ± 0.00741 kcal/mol

Q: What about the excess molar enthalpy ([2]; x1 = 0.3007) of the same compound?
A: 0.344 ± 0.00932 kcal/mol

Q: What about the excess molar enthalpy ([2]; x1 = 0.4015) of the same compound?
A: 0.384 kcal/mol and 0.385 kcal/mol

Q: And the excess molar enthalpy ([2]; x1 = 0.5008)?
A: 0.396 ± 0.0108 kcal/mol

Q: What about the excess molar enthalpy ([2]; x1 = 0.6021) of the same compound?
A: 0.38 ± 0.0103 kcal/mol

Q: What about the excess molar enthalpy ([2]; x1 = 0.7004) of the same compound?
A: 0.336 ± 0.00908 kcal/mol

Q: What about the excess molar enthalpy ([2]; x1 = 0.7998) of the same compound?
A: 0.262 ± 0.00717 kcal/mol

Q: What about the excess molar enthalpy ([2]; x1 = 0.8998) of the same compound?
A: 0.155 ± 0.0043 kcal/mol

Q: What about the refractive index ([3]; x1 = 0.0502) of the same compound?
A: 1.39473 ± 0.00033

Q: What about the refractive index ([3]; x1 = 0.1005) of the same compound?
A: 1.39443 ± 0.00033

Q: What about the refractive index ([3]; x1 = 0.2005) of the same compound?
A: 1.39392 ± 0.00033

Q: And the refractive index ([3]; x1 = 0.3998)?
A: 1.39335 ± 0.00033

Q: And the refractive index ([3]; x1 = 0.602)?
A: 1.39309 ± 0.00033

Q: What about the refractive index ([3]; x1 = 0.7988) of the same compound?
A: 1.39313 ± 0.00033

Q: And the refractive index ([3]; x1 = 0.8985)?
A: 1.39325 ± 0.00033

Q: And the refractive index ([3]; x1 = 0.9508)?
A: 1.39335 ± 0.00033

Q: And the refractive index ([3]; x1 = 1)?
A: 1.39346 ± 0.00033

Q: Which refractive index ([3]; x1 = 1) does the source give for CC(=O)CC(C)C [4-methylpentan-2-one] + CCC(C)(C)O here?
A: 1.39352 ± 0.00033

Q: For CCCCC(CC)CO (stereo unspecified) [2-ethyl-1-hexanol], which refractive index ([4]; 297.86 K) is on record?
A: 1.4295 ± 0.0003

Q: What about the refractive index ([4]; 298.15 K) of the same compound?
A: 1.42949 ± 0.00032

Q: And the mass density ([5]; 297.86 K)?
A: 828.8 ± 0.3 kg/m3

Q: And the “vapor or sublimation pressure” value ([5]; 389.76 K)?
A: 9.88 ± 0.24 kPa

Q: And the “vapor or sublimation pressure” value ([5]; 407.11 K)?
A: 19.88 ± 0.29 kPa

Q: What about the “vapor or sublimation pressure” value ([5]; 418.24 K) of the same compound?
A: 30.03 ± 0.41 kPa

Q: What about the “vapor or sublimation pressure” value ([5]; 426.95 K) of the same compound?
A: 39.67 ± 0.25 kPa

Q: And the “vapor or sublimation pressure” value ([5]; 430.79 K)?
A: 45.05 ± 0.3 kPa

Q: And the “vapor or sublimation pressure” value ([5]; 433.51 K)?
A: 49.22 ± 0.34 kPa

Q: And the “vapor or sublimation pressure” value ([5]; 437.24 K)?
A: 55.52 ± 0.19 kPa

Q: And the “vapor or sublimation pressure” value ([5]; 439.49 K)?
A: 59.61 ± 0.21 kPa

Q: What about the “vapor or sublimation pressure” value ([5]; 442.12 K) of the same compound?
A: 64.64 ± 0.22 kPa

Q: And the “vapor or sublimation pressure” value ([5]; 445 K)?
A: 70.55 ± 0.23 kPa

Q: What about the “vapor or sublimation pressure” value ([5]; 447.04 K) of the same compound?
A: 75.01 ± 0.24 kPa

Q: And the “vapor or sublimation pressure” value ([5]; 449.02 K)?
A: 79.55 ± 0.25 kPa

Q: And the “vapor or sublimation pressure” value ([5]; 451.06 K)?
A: 84.49 ± 0.27 kPa

Q: What about the “vapor or sublimation pressure” value ([5]; 456.77 K) of the same compound?
A: 99.44 ± 0.28 kPa

Q: What about the “vapor or sublimation pressure” value ([5]; 457.83 K) of the same compound?
A: 102.2 ± 0.26 kPa

Q: What about the “vapor or sublimation pressure” value ([5]; 458.23 K) of the same compound?
A: 102.91 ± 0.2 kPa

Q: What about the “vapor or sublimation pressure” value ([5]; 458.24 K) of the same compound?
A: 103.26 ± 0.27 kPa
